Measured values published in paper PMC9889419 (Pharmacological Reports, 2022).
pKi: −log10 of the molar value. Counter-ions that a name gives are not always drawn.

How the values were obtained:
mice = assay: Hot plate test; type: in vivo
Experimental: The hot plate test was performed as previously described. The mice were ip pre-treated 30 min before experiment either with the compound, dissolved in saline (at doses 10, 30 and 100 mg/kg) or vehicle and were placed on a hot plate set at 55 °C (Hot plate, Omega 2A, Poland). Latency to nocifensive reaction (hind paw licking or jumping) of mice was recorded. The mouse was removed from the plate immediately upon licking a hind paw/jumping or if no response occurred within 60 s (cut-off).

CYP2A6 = biological target: T1, CYP2A6 (Homo sapiens, UniProt P11509); assay: Human cytochrome P450 inhibition (human liver microsomes); type: in vitro ADME
T1 construct: tissue celsis X008064-LSL; host or cells: human liver microsomes
T1 sequence (P11509 1-494): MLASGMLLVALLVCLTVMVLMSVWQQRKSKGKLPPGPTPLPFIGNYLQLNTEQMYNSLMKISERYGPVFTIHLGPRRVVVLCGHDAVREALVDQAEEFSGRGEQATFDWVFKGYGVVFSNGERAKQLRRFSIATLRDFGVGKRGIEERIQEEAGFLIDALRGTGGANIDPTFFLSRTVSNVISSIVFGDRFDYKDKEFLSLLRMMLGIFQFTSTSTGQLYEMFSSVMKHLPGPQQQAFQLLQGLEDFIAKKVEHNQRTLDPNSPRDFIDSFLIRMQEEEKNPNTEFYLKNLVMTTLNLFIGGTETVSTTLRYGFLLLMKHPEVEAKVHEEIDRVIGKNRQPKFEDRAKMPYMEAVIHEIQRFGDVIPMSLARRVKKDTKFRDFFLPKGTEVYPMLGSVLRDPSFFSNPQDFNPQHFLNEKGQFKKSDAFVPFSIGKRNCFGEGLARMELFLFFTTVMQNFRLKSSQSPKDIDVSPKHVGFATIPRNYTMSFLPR
Experimental: (§1) The selective reactions utilized for each enzyme were as follows: CYP1A2—phenacetin deethylation, CYP2A6—coumarin 7-hydroxylation, CYP2B6—7-ethoxy-4-trifluoromethyl coumarin O-deethylation, CYP2C9—diclofenac 4-hydroxylation, CYP2C19—S-mephenytoin 4-hydroxylation, CYP2D6—bufuralol 1’-hydroxylation, CYP2E1—chlorzoxazone 6-hydroxylation, CYP3A4—testosterone 6β-hydroxylation. For inhibitory evaluation, human liver microsomes and the tested compound (added in methanol as a solvent) were incubated under aerobic conditions with cytochrome P450 isozyme-selective substrates and excess NADPH at 37 °C. Incubations were for time periods over which the reaction in the absence of the compound, were determined to be linear, and proportional to the protein concentration. The human liver microsomes used were selected from the bank of those commercially available to be especially rich in the amount of the cytochrome P450 isozyme under investigation. However, it is important to note that the microsomes contained all the other isozymes in addition, and if reaction/substrate was less than specific, the other isozymes may have contributed to a minor extent to the enzyme activity determined. Following incubation, the reaction was terminated, an internal standard added, the metabolic products extracted and separated by reverse phase HPLC. Each assay was performed in duplicate, and the mean value calculated. The HPLC elutions were monitored by UV absorbance for all CYP reactions except those for CYP2A6, CYP2B6 and CYP2D6 where fluorescence monitoring was employed. Quantification was by comparison with authentic metabolites.

CYP2D6 = biological target: T2, CYP2D6 (Homo sapiens, UniProt P10635); assay: as above; type: in vitro ADME
T2 construct: from tissue; host or cells: human liver microsomes
T2 sequence (P10635 whole entry): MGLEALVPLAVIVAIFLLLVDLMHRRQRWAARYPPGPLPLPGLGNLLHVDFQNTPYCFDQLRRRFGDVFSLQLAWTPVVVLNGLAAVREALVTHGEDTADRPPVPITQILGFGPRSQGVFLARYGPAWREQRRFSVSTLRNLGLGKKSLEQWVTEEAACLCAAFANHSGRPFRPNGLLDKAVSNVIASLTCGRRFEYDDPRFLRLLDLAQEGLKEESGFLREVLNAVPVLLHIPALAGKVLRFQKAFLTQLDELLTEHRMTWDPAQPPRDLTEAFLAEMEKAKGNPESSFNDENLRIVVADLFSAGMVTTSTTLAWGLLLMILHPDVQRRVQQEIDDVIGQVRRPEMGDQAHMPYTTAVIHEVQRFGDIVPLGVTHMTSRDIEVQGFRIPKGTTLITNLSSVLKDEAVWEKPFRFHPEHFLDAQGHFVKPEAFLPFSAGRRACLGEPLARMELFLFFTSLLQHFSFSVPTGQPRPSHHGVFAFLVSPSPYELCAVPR
Experimental: as §1

CYP1A2 = biological target: T3, CYP1A2 (Homo sapiens, UniProt P05177); assay: as above; type: in vitro ADME
T3 construct: tissue celsis F008085-CST; host or cells: human liver microsomes
T3 sequence (P05177 1-516): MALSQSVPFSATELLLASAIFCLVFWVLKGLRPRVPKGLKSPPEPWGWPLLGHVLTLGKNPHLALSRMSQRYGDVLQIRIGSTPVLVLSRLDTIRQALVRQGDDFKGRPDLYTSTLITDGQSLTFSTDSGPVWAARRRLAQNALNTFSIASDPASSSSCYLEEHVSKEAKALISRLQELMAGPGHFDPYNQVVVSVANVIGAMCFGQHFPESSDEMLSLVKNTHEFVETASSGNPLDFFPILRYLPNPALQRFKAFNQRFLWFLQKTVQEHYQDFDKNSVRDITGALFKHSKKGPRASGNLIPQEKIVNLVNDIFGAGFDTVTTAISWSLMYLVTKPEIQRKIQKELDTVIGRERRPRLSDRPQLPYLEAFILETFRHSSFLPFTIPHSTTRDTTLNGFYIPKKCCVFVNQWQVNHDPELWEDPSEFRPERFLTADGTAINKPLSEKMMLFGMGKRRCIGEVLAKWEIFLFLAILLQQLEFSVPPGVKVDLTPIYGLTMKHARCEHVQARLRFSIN
Experimental: as §1

CYP2C9 = biological target: T4, CYP2C9 (Homo sapiens, UniProt P11712); assay: as above; type: in vitro ADME
T4 construct: from tissue; host or cells: human liver microsomes
T4 sequence (P11712 whole entry): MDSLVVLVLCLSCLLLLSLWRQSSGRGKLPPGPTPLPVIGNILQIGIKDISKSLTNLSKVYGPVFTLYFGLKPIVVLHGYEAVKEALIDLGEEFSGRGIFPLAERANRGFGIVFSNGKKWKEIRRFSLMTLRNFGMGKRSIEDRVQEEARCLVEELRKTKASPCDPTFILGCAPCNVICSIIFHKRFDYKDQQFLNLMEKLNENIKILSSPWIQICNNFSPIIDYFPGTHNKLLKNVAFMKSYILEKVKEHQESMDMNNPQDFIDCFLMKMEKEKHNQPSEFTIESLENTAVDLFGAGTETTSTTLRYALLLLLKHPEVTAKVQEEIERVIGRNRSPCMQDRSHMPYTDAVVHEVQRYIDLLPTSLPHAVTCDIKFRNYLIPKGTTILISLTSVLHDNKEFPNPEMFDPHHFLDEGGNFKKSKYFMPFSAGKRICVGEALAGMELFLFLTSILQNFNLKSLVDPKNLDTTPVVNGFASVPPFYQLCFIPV
Experimental: as §1

CYP2E1 = biological target: T5, CYP2E1 (Homo sapiens, UniProt P05181); assay: as above; type: in vitro ADME
T5 construct: The human liver microsomes used were selected from the bank of those commercially available; from tissue; host or cells: human liver microsomes
T5 sequence (P05181 whole entry): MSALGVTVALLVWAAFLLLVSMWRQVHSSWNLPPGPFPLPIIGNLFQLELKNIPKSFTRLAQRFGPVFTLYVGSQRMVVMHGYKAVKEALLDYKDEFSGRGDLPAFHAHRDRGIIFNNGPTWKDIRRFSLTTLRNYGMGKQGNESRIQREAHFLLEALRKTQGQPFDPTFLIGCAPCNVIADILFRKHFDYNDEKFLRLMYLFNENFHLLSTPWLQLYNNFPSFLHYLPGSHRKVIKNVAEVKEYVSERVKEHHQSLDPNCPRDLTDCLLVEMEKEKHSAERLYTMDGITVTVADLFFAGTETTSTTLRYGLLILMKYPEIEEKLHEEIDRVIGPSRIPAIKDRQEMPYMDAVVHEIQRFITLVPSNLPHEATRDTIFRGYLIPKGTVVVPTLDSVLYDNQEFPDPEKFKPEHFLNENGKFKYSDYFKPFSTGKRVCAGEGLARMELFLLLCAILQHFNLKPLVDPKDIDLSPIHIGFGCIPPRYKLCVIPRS
Experimental: as §1

CYP3A4 = biological target: T6, CYP3A4 (Homo sapiens, UniProt P08684); assay: as above; type: in vitro ADME
T6 construct: The human liver microsomes used were selected from the bank of those commercially available; from tissue; host or cells: human liver microsomes
T6 sequence (P08684 whole entry): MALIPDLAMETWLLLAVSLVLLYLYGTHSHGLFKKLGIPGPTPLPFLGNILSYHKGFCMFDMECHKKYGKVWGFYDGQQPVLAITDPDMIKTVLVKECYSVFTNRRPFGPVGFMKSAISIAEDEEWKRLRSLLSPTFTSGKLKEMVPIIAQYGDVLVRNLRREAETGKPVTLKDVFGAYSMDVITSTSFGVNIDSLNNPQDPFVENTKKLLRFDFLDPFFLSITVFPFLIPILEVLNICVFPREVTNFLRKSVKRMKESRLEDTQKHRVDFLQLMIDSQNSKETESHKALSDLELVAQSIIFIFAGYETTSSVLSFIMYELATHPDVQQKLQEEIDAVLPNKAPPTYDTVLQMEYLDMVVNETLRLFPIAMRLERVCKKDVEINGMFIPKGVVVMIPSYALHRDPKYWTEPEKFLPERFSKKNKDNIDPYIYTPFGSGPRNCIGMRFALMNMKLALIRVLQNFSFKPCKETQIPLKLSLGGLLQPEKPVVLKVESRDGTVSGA
Experimental: as §1

CYP2B6 = biological target: T7, CYP2B6 (Homo sapiens, UniProt P20813); assay: as above; type: in vitro ADME
T7 construct: tissue celsis M008085JTA; host or cells: human liver microsomes
T7 sequence (P20813 whole entry): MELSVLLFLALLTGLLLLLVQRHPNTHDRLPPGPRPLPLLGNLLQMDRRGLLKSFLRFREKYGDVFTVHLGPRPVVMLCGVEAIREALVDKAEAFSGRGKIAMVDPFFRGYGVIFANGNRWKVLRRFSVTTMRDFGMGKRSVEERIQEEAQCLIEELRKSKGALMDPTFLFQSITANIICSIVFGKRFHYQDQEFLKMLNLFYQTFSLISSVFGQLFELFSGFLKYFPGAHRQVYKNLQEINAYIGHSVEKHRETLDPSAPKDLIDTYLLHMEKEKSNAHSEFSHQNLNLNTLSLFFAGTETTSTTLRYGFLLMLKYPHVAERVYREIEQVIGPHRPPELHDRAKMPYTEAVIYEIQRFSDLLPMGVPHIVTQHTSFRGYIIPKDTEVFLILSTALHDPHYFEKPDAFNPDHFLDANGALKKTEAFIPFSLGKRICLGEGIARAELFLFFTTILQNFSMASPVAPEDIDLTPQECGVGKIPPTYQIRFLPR
Experimental: as §1

CYP2C19 = biological target: T8, CYP2C19 (Homo sapiens, UniProt P33261); assay: as above; type: in vitro ADME
T8 construct: tissue Puracyp #011; host or cells: human liver microsomes
T8 sequence (P33261 whole entry): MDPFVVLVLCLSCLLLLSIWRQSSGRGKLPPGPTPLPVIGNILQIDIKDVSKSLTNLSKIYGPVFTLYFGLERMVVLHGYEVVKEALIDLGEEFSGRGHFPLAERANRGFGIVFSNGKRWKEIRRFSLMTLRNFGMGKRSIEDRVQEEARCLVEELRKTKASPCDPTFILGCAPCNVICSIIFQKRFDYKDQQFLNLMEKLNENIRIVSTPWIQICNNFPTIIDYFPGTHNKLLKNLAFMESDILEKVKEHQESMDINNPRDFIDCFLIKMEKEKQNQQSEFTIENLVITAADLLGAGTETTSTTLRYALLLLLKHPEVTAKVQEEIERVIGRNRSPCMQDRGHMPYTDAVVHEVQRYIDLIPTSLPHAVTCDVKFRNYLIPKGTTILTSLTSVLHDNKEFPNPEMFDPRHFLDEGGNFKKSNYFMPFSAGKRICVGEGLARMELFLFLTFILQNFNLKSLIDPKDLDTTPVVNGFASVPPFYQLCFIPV
Experimental: as §1

[1] = test system: P-glycoprotein (pregnane X receptor); assay: In vitro metabolic gene induction studies; type: cell-based, human; conditions: up to 500 uM
Text: Test 28 - In Vitro Metabolic Gene Induction Studies
Solventcode: DMSO Solvent Prep: Unit: uM
Cell line source: Puracyp Molecular 257.7590
Date Started: O5+eb-2O10 Date Completed: 15+eb-201O Weight:
Reference: Lamb book#8 pg.77 […]
lsoform Code: P{lycoprotein cell line: MDRI.C
Induc0on mechanism: pregnane X receptor
Concentration lnduction Cell […]
Note: 8ox ifdata is different.
. {calculated): slight Induotion (under tlffo fold) in vitro.
The highest response was less than that seen with 1ouM rifampicin.
(1 picture or pasted object on this page, not shown here)

`CCC(CO)NCCOc1c(C)cccc1Cl` (stereo not shown) [KM-408, R,S-2-((2-(2-chloro-6-methylphenoxy)ethyl)amino)butan-1-ol hydrochloride] was tested, and the “effect on the thermal pain threshold” value (mice; 10 mg/kg ip) was “no significant effect”, the “prolongation of nocifensive response” value (mice; 30 mg/kg ip) was 123% and the “prolongation of nocifensive response” value (mice; 100 mg/kg ip) was 177%. The “hot plate test: active at” value (mice; mice, ip) was 30 mg/kg.
`CCC(CO)NCCOc1c(C)cccc1Cl` (stereo not shown) [Compound 4, R,S-2-((2-(2-chloro-6-methylphenoxy)ethyl)amino)butan-1-ol] was tested, and the Inhibition type (CYP2A6) was “Mixed/competitive”, the pKi (CYP2A6) was 3.43 and the “% inhibition of 500 µM concentration” value (CYP2A6; 500 µM, substrate at 10 µM) was 44 (substrate at 10 µM) %. For the same compound, the Inhibition type (CYP2D6) was “Mixed/competitive”, the pKi (CYP2D6) was 5.85 and the “% inhibition of 500 µM concentration” value (CYP2D6; 500 µM, substrate at 100.0 µM) was 100 (substrate at 100.0 µM) %. The Inhibition type (CYP1A2) was “Mixed/competitive”, the pKi (CYP1A2) was 4.64 and the “% inhibition of 500 µM concentration” value (CYP1A2; 500 µM, substrate at 2 µM) was 65 (substrate at 2 µM) %. The Inhibition type (CYP2C9) was “Slight inhibition”, the “% inhibition of 500 µM concentration” value (CYP2C9; 500 µM, substrate at 400 µM) was 19 (substrate at 400 µM) % and the Inhibition type (CYP2E1) was “Slight inhibition”. The “% inhibition of 500 µM concentration” value (CYP2E1; 500 µM, substrate at 500.0 µM) was 17 (substrate at 500.0 µM) %, the Inhibition type (CYP3A4) was “Weak inhibition” and the “% inhibition of 500 µM concentration” value (CYP3A4; 500 µM, substrate at 200.0 µM) was 52 (substrate at 200.0 µM) %. For the same compound, the Inhibition type (CYP2B6) was “Weak inhibition”, the “% inhibition of 500 µM concentration” value (CYP2B6; 500 µM, substrate at 25 µM) was 69 (substrate at 25 µM) % and the Inhibition type (CYP2C19) was “Mixed/competitive”. For the same compound, the pKi (CYP2C19) was 4.27, the “% inhibition of 500 µM concentration” value (CYP2C19; 500 µM, substrate at […]) was 80 (substrate at 150.0 µM) % and the induction [1] was “slight induction”.
